# Experiments:
# H3K27ac = assay: hmqChIP quantification of global H3K27ac level after drug treatment; type: cell-based, human; conditions: HCT116 and U2OS cells, 0.5 uM/5 uM, 40 h, anti-H3K27ac ChIP
# Protocol: (§1) A highly multiplexed experiment profiling global levels of three histone modifications in 96 samples: Two different cancer cell lines (human colon cancer HCT116, human osteosarcoma U2OS) were treated with 11 different drugs at 2 concentrations each (low, high) or DMSO as a control. Two replicates each (rep1, rep2) were performed of each treatment, totaling 96 samples. For U2OS, 9000 cells were seeded per 96-well, For HCT116, 6000 cells were seeded. After 24 h, drugs were added to each well, using the concentration specified in the following table:
# (§2) After further growth for 40 h, the cell number was approx. 50 000 cells per well. […]
# (§3) The final libraries were sequenced twice, to test the influence of sequencing two different random set of molecules on the quantification of global levels (that only scarcely covering the genome). The first time ˜1 Mio reads were sequenced in total for the four sub-pools (3 ChIP, 1 input), approximately 250 000 per sub-pool. […] The second time at total of 25 Mio reads were collected and either all of the reads were analyzed, or only a randomly selected subset of 1 mio reads. When all reads were analyzed, it corresponds to approx. 260,416 reads per sample. Input-normalized unique read count (INRCs) using DMSO controls as reference were calculated as described in Example 2 and plotted in a heatmap with grayscale and circle size reflecting the INRC.
# H3K27me3 in U2OS cells = assay: hmqChIP quantification of global H3K27me3 level after drug treatment, U2OS; type: cell-based, human; conditions: 0.5 uM/5 uM, 40 h, anti-H3K27me3 ChIP
# Protocol: as §1, §2, §3
# H3K27me3 in HCT116 cells = assay: hmqChIP quantification of global H3K27me3 level after drug treatment, HCT116; type: cell-based, human; conditions: 0.5 uM/5 uM, 40 h, anti-H3K27me3 ChIP
# Protocol: as §1, §2, §3
# [1] = system: H3K27me3 in mouse embryonic stem cells; conditions: dataset according to Kumar and Elsässer 2019; cited from earlier work
smiles,measurement,setting,value
CC(NC(=O)c1ccccc1/N=C/c1c(O)ccc2ccccc12)c1ccccc1 (centres unmarked) [Sirtinol],global H3K27ac level (INRC relative to DMSO control),H3K27ac,increase H3K27ac acetylation
same,global H3K27me3 level (INRC relative to DMSO control),H3K27me3 in U2OS cells,decreases H3K27me3
CCN(c1cc(C#CCN2CCOCC2)cc(C(=O)NCc2c(C)cc(C)[nH]c2=O)c1C)[C@H]1CC[C@H](N(C)CCOC)CC1 [EPZ011989],global H3K27me3 level (INRC relative to DMSO control),H3K27me3 in HCT116 cells,decrease H3K27me3
O=C(CCCCCCC(=O)Nc1ccccc1)NO [SAHA],global H3K27ac level (INRC relative to DMSO control),H3K27ac,increase H3K27ac acetylation
CCOC(=O)CCNc1cc(N2CCc3ccccc3CC2)nc(-c2ccccn2)n1 [GSK-J4],H3K27me3 level of treated mESC used as calibration cell source,[1],increase H3K27me3 above physiologic levels

# — patent US20240011018A1, “MULTIPLEXED METHOD FOR ASSESSING GLOBAL OR GENOMIC LOCUS-SPECIFIC LEVELS OF CHROMATIN MODIFICATION” (Epigenica AB, priority 2020, published 2024)
